Laboratory results taken from ChEMBL document CHEMBL1130674, “N-arylrolipram derivatives as potent and selective PDE4 inhibitors” (1998).

Tests used:
Rattus norvegicus [1] = assay: Eosinophil accumulation in sensitized brown norway rats at 1 mg/kg dose (No of rats = 5); type: functional
Homo sapiens = species on record: Homo sapiens; assay: Inhibition of fMLP induced oxidative burst in human eosinophils.; type: functional
PBMC [2] = assay: Inhibition of anti-CD3 induced IL-4 release by human peripheral blood mononuclear cells.; type: functional
PBMC [3] = assay: Inhibition of anti-CD3 induced T-cell proliferation in human peripheral blood mononuclear cells.; type: functional
PBMC [4] = assay: Inhibition of LPS induced TNF-alpha release by human peripheral blood mononuclear cells.; type: functional
[5] = target: Phosphodiesterase 3 (Homo sapiens) (UniProt Q14432+Q13370); assay: Inhibition of phosphodiesterase (PDE) 3; type: protein assay
[6] = target: 3',5'-cyclic-AMP phosphodiesterase 4D (Homo sapiens) (UniProt Q08499); assay: Inhibition of phosphodiesterase (PDE) 4D
Chain of 3',5'-cyclic-AMP phosphodiesterase 4D (Homo sapiens) (Q08499 whole entry): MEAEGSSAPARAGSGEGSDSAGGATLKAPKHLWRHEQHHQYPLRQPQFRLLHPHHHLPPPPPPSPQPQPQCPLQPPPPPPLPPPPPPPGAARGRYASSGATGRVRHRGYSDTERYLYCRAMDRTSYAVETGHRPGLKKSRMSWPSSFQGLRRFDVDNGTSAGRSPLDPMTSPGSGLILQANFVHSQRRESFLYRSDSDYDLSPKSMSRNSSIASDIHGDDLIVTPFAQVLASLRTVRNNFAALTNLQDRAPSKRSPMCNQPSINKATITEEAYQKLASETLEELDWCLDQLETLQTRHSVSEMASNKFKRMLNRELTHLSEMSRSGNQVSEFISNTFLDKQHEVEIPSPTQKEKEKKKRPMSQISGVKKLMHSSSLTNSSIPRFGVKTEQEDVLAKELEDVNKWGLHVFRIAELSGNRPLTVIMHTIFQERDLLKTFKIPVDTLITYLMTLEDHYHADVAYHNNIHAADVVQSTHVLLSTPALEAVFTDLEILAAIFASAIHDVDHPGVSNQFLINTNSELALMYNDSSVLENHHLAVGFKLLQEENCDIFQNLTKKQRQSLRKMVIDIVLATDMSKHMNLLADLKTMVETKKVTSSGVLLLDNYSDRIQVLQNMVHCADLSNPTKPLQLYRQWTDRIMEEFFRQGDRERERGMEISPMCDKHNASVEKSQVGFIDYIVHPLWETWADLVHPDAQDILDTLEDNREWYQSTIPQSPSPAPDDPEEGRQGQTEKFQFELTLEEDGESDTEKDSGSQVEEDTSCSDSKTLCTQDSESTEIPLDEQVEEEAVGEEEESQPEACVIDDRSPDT

PBMC [7] = assay: Inhibition of anti-CD3 induced IFN-gamma-release in human peripheral blood mononuclear cells.; type: functional
[8] = target: T1, 3',5'-cyclic-AMP phosphodiesterase 4B (Rattus norvegicus) (UniProt P14646); assay: Inhibition of phosphodiesterase (PDE) 4B
T1 sequence (whole entry): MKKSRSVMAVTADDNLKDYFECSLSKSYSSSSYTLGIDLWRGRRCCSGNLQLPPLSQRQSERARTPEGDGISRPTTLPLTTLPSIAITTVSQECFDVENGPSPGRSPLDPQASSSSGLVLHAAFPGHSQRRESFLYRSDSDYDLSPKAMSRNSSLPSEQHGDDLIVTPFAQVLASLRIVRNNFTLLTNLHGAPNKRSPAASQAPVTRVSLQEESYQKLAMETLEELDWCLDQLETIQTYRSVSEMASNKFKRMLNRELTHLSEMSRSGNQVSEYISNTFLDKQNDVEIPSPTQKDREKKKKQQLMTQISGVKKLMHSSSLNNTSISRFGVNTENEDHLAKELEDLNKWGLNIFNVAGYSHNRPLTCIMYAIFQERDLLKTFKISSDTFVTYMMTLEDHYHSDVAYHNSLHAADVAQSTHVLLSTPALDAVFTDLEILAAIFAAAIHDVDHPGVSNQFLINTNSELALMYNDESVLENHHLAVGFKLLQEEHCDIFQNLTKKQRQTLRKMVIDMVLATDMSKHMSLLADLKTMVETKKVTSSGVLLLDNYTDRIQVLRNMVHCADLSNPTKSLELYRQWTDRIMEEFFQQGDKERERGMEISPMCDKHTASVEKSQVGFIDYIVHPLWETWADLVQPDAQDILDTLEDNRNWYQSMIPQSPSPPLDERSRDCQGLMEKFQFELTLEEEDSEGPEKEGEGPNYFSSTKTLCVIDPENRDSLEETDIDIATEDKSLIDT

[9] = target: 3',5'-cyclic-AMP phosphodiesterase 4A (Homo sapiens) (UniProt P27815)
Chain of 3',5'-cyclic-AMP phosphodiesterase 4A (Homo sapiens) (P27815 whole entry): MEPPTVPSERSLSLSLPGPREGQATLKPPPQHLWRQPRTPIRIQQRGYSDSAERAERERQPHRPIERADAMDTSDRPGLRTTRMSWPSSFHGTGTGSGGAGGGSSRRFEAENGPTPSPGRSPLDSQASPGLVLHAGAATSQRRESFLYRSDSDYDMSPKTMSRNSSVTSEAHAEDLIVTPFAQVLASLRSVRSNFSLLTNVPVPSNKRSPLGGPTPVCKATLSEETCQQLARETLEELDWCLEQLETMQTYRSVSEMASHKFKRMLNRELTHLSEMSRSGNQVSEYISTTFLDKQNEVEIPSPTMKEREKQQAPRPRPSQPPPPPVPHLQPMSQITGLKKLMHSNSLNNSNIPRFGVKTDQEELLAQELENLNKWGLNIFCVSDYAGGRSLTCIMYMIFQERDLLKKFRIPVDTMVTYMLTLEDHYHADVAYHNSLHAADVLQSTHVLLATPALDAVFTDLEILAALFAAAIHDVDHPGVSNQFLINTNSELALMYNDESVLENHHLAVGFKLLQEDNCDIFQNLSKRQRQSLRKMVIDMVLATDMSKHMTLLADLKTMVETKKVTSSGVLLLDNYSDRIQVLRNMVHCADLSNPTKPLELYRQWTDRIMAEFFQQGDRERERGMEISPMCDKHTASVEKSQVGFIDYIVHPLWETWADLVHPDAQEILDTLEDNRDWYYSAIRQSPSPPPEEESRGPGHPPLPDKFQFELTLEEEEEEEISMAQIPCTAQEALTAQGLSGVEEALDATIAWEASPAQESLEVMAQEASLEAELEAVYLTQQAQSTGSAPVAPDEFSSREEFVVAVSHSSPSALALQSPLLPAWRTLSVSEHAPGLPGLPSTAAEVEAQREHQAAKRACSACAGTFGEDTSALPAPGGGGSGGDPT
Description: Inhibition of phosphodiesterase (PDE) 4A

[10] = Inhibition of rolipram binding
Rattus norvegicus [11] = assay: Eosinophil accumulation in sensitized brown norway rats at 3.2 mg/kg dose (No of rats = 5); type: functional

Structure (SMILES)	Activation (Rattus norvegicus [1])	pIC50 (Homo sapiens)	pIC50 (PBMC [2])	pIC50 (PBMC [3])	pIC50 (PBMC [4])	pIC50 [5]	pIC50 [6]	pIC50 (PBMC [7])	pIC50 [8]	pIC50 [9]	pIC50 [10]	Activation (Rattus norvegicus [11])
COc1cccc(COc2cc(C(=O)NN(C)C)cc(N3CC(c4ccc(OC)c(OC5CCCC5)c4)CC3=O)c2)c1 (stereo unspecified)	10 mU ml-1	7.3	7.6	7.3	7.7	< 4	8.8	7.8	8.3	8.6	8.3	–
COc1cccc(COc2cccc(N3CC(c4ccc(OC)c(OC5CCCC5)c4)CC3=O)c2)c1 (stereo unspecified)	–	–	–	–	–	< 4	8.1	–	8.6	8.2	8.1	–
COc1ccc(C2CNC(=O)C2)cc1OC1CCCC1 (stereo unspecified) [ROLIPRAM]	–	6.1	6.3	–	7.1	–	–	5.6	–	–	–	–
COc1cccc(COc2cc(C(=O)O)cc(N3CC(c4ccc(OC)c(OC5CCCC5)c4)CC3=O)c2)c1 (stereo unspecified)	–	6.6	6.6	7.2	7.4	< 4	7.9	7.5	7.7	7.9	7.5	5 mU ml-1
